Experimental data from PubChem BioAssay (NCI).
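Exposure lasted 48 hours, with cells grown in 96-well plates and compounds tested at five concentrations. The concentration for 50% growth inhibition is given as GI50. TGI marks complete inhibition of growth.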

How the values were obtained:
Assay in all cases: inhibition of tumour cell growth, NCI panel, 48 h
SNB-19 CNS = tested on: SNB-19 CNS
BT-549 breast = tested on: BT-549 breast
LOX IMVI melanoma = tested on: LOX IMVI melanoma
SK-OV-3 ovarian = tested on: SK-OV-3 ovarian
EKVX NSCLC = tested on: EKVX NSCLC
MDA-MB-435 = tested on: MDA-MB-435
HOP-92 NSCLC = tested on: HOP-92 NSCLC
SK-MEL-2 melanoma = tested on: SK-MEL-2 melanoma
K-562 leukemia = tested on: K-562 leukemia
SR leukemia = tested on: SR leukemia
PC-3 prostate = tested on: PC-3 prostate
MDA-MB-231 breast = tested on: MDA-MB-231 breast
OVCAR-3 ovarian = tested on: OVCAR-3 ovarian
RXF 393 renal = tested on: RXF 393 renal
SNB-75 CNS = tested on: SNB-75 CNS
CAKI-1 renal = tested on: CAKI-1 renal
IGROV1 ovarian = tested on: IGROV1 ovarian
HCC-2998 colon = tested on: HCC-2998 colon
CCRF-CEM leukemia = tested on: CCRF-CEM leukemia
SF-295 CNS = tested on: SF-295 CNS
M14 melanoma = tested on: M14 melanoma
MOLT-4 leukemia = tested on: MOLT-4 leukemia
UO-31 renal = tested on: UO-31 renal
NCI-H522 lung = tested on: NCI-H522 lung
HOP-62 NSCLC = tested on: HOP-62 NSCLC
HT29 colon = tested on: HT29 colon
SN12C renal = tested on: SN12C renal
TK-10 renal = tested on: TK-10 renal
KM12 colon = tested on: KM12 colon
786-0 renal = tested on: 786-0 renal
SW-620 colon = tested on: SW-620 colon
OVCAR-4 ovarian = tested on: OVCAR-4 ovarian
T-47D breast = tested on: T-47D breast
UACC-62 melanoma = tested on: UACC-62 melanoma
A498 renal = tested on: A498 renal
SF-268 CNS = tested on: SF-268 CNS
NCI-H226 lung = tested on: NCI-H226 lung
MCF7 breast = tested on: MCF7 breast
HS 578T breast = tested on: HS 578T breast
RPMI-8226 leukemia = tested on: RPMI-8226 leukemia
U251 CNS = tested on: U251 CNS
OVCAR-8 ovarian = tested on: OVCAR-8 ovarian
A549 NSCLC = tested on: A549 NSCLC
MDA-MB-468 breast = tested on: MDA-MB-468 breast
MALME-3M melanoma = tested on: MALME-3M melanoma
NCI-H23 lung = tested on: NCI-H23 lung
UACC-257 melanoma = tested on: UACC-257 melanoma
NCI-H460 lung = tested on: NCI-H460 lung
SK-MEL-28 melanoma = tested on: SK-MEL-28 melanoma
NCI/ADR-RES ovarian = tested on: NCI/ADR-RES ovarian
HCT-116 colon = tested on: HCT-116 colon
HL-60(TB) leukemia = tested on: HL-60(TB) leukemia
HCT-15 colon = tested on: HCT-15 colon
SK-MEL-5 melanoma = tested on: SK-MEL-5 melanoma
OVCAR-5 ovarian = tested on: OVCAR-5 ovarian
DU-145 prostate = tested on: DU-145 prostate
ACHN renal = tested on: ACHN renal
COLO 205 colon = tested on: COLO 205 colon
SF-539 CNS = tested on: SF-539 CNS

## C=C1CCC2C3(C)COC(c4ccc(F)cc4)OC3CCC2(C)C1C/C=C1/C(=O)OCC1O (configuration not stated)
SNB-19 CNS
  GI50: 4.84 µM
  TGI: 16.9 µM
BT-549 breast
  GI50: 1.65 µM
  TGI: 3.19 µM
LOX IMVI melanoma
  GI50: 1.5 µM
  TGI: 2.83 µM
SK-OV-3 ovarian
  GI50: 14.4 µM
  TGI: 27.8 µM
EKVX NSCLC
  GI50: 4.57 µM
  TGI: 17.2 µM
MDA-MB-435
  GI50: 1.84 µM
  TGI: 4.48 µM
HOP-92 NSCLC
  GI50: 2.17 µM
  TGI: 6.46 µM
SK-MEL-2 melanoma
  GI50: 1.89 µM
  TGI: 3.89 µM
K-562 leukemia
  GI50: 2.09 µM
SR leukemia
  GI50: 2.44 µM
  TGI: 6.51 µM
PC-3 prostate
  GI50: 2.19 µM
  TGI: 5.92 µM
MDA-MB-231 breast
  GI50: 1.92 µM
  TGI: 4.03 µM
OVCAR-3 ovarian
  GI50: 1.83 µM
  TGI: 3.6 µM
RXF 393 renal
  GI50: 2.41 µM
  TGI: 6.54 µM
SNB-75 CNS
  GI50: 1.58 µM
  TGI: 7.57 µM
CAKI-1 renal
  GI50: 3.06 µM
  TGI: 11.5 µM
IGROV1 ovarian
  GI50: 2.78 µM
  TGI: 10.1 µM
HCC-2998 colon
  GI50: 2.67 µM
  TGI: 8.69 µM
CCRF-CEM leukemia
  GI50: 1.24 µM
  TGI: 5.2 µM
SF-295 CNS
  GI50: 1.87 µM
  TGI: 4.64 µM
M14 melanoma
  GI50: 2.2 µM
  TGI: 5.92 µM
MOLT-4 leukemia
  GI50: 2.79 µM
  TGI: 8.13 µM
UO-31 renal
  GI50: 1.55 µM
  TGI: 3.67 µM
NCI-H522 lung
  GI50: 1.45 µM
  TGI: 2.91 µM
HOP-62 NSCLC
  GI50: 10.7 µM
  TGI: 22.9 µM
HT29 colon
  GI50: 1.78 µM
  TGI: 3.85 µM
SN12C renal
  GI50: 1.48 µM
  TGI: 3.18 µM
TK-10 renal
  GI50: 3.85 µM
  TGI: 14.9 µM
KM12 colon
  GI50: 2.81 µM
  TGI: 7.72 µM
786-0 renal
  GI50: 1.74 µM
  TGI: 3.15 µM
SW-620 colon
  GI50: 1.25 µM
  TGI: 2.71 µM
OVCAR-4 ovarian
  GI50: 2.11 µM
  TGI: 5.9 µM
T-47D breast
  GI50: 2.14 µM
  TGI: 9.87 µM
UACC-62 melanoma
  GI50: 1.94 µM
  TGI: 4.8 µM
A498 renal
  GI50: 13.7 µM
  TGI: 27 µM
SF-268 CNS
  GI50: 3.53 µM
  TGI: 14.4 µM
NCI-H226 lung
  GI50: 1.81 µM
  TGI: 3.58 µM
MCF7 breast
  GI50: 1.1 µM
  TGI: 2.88 µM
HS 578T breast
  GI50: 2.7 µM
  TGI: 9.69 µM
RPMI-8226 leukemia
  GI50: 1.83 µM
  TGI: 5.05 µM
U251 CNS
  GI50: 1.66 µM
  TGI: 3.09 µM
OVCAR-8 ovarian
  GI50: 1.54 µM
  TGI: 3.4 µM
A549 NSCLC
  GI50: 3.07 µM
  TGI: 13.1 µM
MDA-MB-468 breast
  GI50: 1.67 µM
  TGI: 3.21 µM
MALME-3M melanoma
  GI50: 2.06 µM
  TGI: 5.16 µM
NCI-H23 lung
  GI50: 3.08 µM
  TGI: 11.5 µM
UACC-257 melanoma
  GI50: 2.04 µM
  TGI: 5.28 µM
NCI-H460 lung
  GI50: 2.02 µM
  TGI: 5.48 µM
SK-MEL-28 melanoma
  GI50: 1.94 µM
  TGI: 4.02 µM
NCI/ADR-RES ovarian
  GI50: 1.67 µM
  TGI: 3.55 µM
HCT-116 colon
  GI50: 1.42 µM
  TGI: 2.74 µM
HL-60(TB) leukemia
  GI50: 1.74 µM
  TGI: 4.93 µM
HCT-15 colon
  GI50: 1.41 µM
  TGI: 3.24 µM
SK-MEL-5 melanoma
  GI50: 2.73 µM
  TGI: 8.58 µM
OVCAR-5 ovarian
  GI50: 2.01 µM
  TGI: 4.9 µM
DU-145 prostate
  GI50: 3.86 µM
  TGI: 13.8 µM
ACHN renal
  GI50: 1.69 µM
  TGI: 3.06 µM
COLO 205 colon
  GI50: 1.86 µM
  TGI: 3.47 µM
SF-539 CNS
  GI50: 1.76 µM
  TGI: 3.16 µM
